# Tests used:
# [1] = target: Epidermal growth factor receptor (Homo sapiens, UniProt P00533, C797S/L858R/T790M); test: Binding affinity to EGFR L858R/T790M/C797S mutant (unknown origin) assessed as inhibition constant incubated for 30 mins in presence of ATP by Real-time fluorescence based analysis
# [2] = target: Epidermal growth factor receptor (Homo sapiens, UniProt P00533); test: Binding affinity to wild type EGFR (unknown origin) assessed as inhibition constant incubated for 30 mins in presence of ATP by Real-time fluorescence based analysis
# Chain of Epidermal growth factor receptor (Homo sapiens, UniProt P00533) (P00533 whole entry): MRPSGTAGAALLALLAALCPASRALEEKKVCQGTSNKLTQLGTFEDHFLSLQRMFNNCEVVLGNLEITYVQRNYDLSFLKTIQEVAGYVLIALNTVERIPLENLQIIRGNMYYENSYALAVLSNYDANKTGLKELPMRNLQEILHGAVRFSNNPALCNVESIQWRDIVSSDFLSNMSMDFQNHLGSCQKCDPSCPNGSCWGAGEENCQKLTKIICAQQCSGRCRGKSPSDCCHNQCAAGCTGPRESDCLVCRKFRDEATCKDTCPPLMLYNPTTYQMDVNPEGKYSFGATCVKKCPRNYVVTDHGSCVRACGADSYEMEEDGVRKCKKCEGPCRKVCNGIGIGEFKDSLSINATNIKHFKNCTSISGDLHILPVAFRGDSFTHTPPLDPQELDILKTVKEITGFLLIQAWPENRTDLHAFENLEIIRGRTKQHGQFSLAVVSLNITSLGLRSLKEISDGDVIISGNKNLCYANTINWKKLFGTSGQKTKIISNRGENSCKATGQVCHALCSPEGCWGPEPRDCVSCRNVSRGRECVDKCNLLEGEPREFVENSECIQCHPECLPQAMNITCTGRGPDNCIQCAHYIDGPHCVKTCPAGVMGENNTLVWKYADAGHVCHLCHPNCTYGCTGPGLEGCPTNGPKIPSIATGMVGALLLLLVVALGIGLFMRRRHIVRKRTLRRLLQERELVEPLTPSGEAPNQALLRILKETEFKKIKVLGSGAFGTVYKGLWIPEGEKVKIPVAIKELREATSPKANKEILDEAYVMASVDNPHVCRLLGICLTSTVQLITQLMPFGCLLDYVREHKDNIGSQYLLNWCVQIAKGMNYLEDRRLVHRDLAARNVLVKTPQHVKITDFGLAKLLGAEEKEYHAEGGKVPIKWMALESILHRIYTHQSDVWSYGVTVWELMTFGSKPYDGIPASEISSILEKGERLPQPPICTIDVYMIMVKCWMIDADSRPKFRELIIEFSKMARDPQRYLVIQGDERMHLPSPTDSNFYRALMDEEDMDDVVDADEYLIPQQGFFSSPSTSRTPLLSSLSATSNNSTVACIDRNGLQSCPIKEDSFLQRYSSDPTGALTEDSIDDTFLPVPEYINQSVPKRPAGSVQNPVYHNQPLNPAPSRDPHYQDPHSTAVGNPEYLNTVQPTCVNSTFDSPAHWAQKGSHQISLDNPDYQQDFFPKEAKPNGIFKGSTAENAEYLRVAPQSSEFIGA
# [3] = physchem; details: octanol/water
# [4] = target: T1, CYP3A4/5 (Homo sapiens, UniProt P08684+P20815); test: Time dependent inhibition of CYP3A4/5 (unknown origin) at 30 uM measured after 30 mins relative to control; assay type: protein assay; details: read-out: TDI
# [5] = target: T1, CYP3A4/5; test: Time dependent inhibition of CYP3A4/5 (unknown origin) assessed as remaining activity at 30 uM relative to control; assay type: protein assay; details: read-out: Activity
# [6] = target: T1, CYP3A4/5; test: Time dependent inhibition of CYP3A4/5 (unknown origin) in presence of NADPH; assay type: ADME, protein assay
# [7] = target: T1, CYP3A4/5; test: Time dependent inhibition of CYP3A4/5 (unknown origin) in absence of NADPH; assay type: ADME, protein assay
# [8] = target: T1, CYP3A4/5; test: Reversible inhibition of CYP3A4/5 (unknown origin) at 30 uM relative to control; assay type: ADME, protein assay
# [9] = target: T1, CYP3A4/5; test: Time dependent inhibition of CYP3A4/5 (unknown origin) at 30 uM measured after 10 mins relative to control; assay type: ADME, protein assay; details: read-out: TDI
# Chain of Epidermal growth factor receptor (Homo sapiens, UniProt P00533, C797S/L858R/T790M) (P00533 25-1210 T790M/C797S/L858R limits assumed): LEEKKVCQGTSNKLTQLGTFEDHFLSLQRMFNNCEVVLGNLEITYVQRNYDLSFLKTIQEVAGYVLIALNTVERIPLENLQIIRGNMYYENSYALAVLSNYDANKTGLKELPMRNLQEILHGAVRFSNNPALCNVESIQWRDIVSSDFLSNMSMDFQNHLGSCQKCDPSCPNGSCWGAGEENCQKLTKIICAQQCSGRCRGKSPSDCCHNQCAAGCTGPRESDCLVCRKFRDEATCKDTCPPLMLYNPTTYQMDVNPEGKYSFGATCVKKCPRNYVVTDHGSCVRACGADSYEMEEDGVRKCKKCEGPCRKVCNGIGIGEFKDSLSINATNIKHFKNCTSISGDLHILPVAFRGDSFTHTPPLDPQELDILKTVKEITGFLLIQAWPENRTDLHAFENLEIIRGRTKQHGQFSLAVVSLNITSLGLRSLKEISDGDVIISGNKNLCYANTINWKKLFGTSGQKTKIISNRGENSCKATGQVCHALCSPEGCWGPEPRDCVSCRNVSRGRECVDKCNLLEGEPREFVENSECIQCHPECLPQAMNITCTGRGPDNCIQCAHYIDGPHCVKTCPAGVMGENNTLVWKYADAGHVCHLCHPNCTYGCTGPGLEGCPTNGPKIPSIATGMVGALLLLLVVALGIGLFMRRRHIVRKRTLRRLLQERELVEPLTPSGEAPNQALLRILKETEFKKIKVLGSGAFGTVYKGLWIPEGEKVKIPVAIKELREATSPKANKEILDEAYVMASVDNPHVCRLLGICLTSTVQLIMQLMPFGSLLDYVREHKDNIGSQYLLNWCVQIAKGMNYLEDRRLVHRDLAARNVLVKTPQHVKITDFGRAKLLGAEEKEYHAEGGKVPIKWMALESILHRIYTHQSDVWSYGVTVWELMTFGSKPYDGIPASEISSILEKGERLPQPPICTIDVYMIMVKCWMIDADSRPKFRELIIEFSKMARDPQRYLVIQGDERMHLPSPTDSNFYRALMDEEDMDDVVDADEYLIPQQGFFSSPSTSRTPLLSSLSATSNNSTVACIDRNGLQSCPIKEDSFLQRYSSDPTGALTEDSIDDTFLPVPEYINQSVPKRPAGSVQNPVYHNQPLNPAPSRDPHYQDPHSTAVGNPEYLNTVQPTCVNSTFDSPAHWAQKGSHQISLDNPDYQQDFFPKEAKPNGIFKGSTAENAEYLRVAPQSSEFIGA
Ki [1],logD at 3 h [3],"inhibition at 0.5 h, 30 µM [4]",activity at 30 µM [5],SMILES,other results
950 nM,3.37,,,COC1CCN(c2nccc(Nc3cc4n(C5CC5)c(C)cn4n3)n2)CC1,Ki [2]: Not_active
,,24%,> 99%,CO[C@@H]1CCN(c2nccc(Nc3cc4n(C5CCC6(CC5)OCCO6)c(C(=O)NCC5CCN(C)CC5)cn4n3)n2)C[C@@H]1F,
27 nM,2.27,,,COC1CCN(c2nccc(Nc3cc4n(C5CCC(=O)CC5)c(C)cn4n3)n2)CC1,Ki [2]: Not_active
,,50%,78%,CO[C@@H]1CCN(c2nccc(Nc3cc4n(C5CCC6(CC5)OCCO6)c(C#N)cn4n3)n2)C[C@@H]1F,
,,34.9%,39%,CCc1cn2nc(Nc3ccnc(N4CC[C@@H](OC)[C@@H](F)C4)n3)cc2n1C1CCC2(CC1)OCCO2,
9.9 nM,3.32,,,Cc1cn2nc(Nc3ccnc(N4CC[C@@H](O)[C@@H](F)C4)n3)cc2n1C1C2CCCC1C2 (stereo partly drawn),Ki ([2]; read-out: Ki): 1700 nM
,,52.4%,57%,CO[C@@H]1CCN(c2nccc(Nc3cc4n(C5CCC6(CC5)OCCO6)c(C)cn4n3)n2)C[C@@H]1F,"IC50 [6]: 156000 nM; IC50 [7]: 820 nM; inhibition at 30 µM [8]: 66%; inhibition at 10 min, 30 µM [9]: 41.2%"
6100 nM,2.56,,,COC1CCN(c2nccc(Nc3cc4n(C)c(C)cn4n3)n2)CC1,Ki [2]: Not_active
,,8.3%,25%,O[C@@H]1CCN(c2nccc(Nc3cc4n(C5CCC6(CC5)OCCO6)c(C(F)(F)F)cn4n3)n2)C[C@@H]1F,IC50 [6]: 2300 nM; IC50 [7]: 5700 nM
,,55.8%,65%,CCc1cn2nc(Nc3ccnc(N4CC[C@@H](OC)[C@@H](F)C4)n3)cc2n1[C@H]1CC[C@]2(CCN(C)C2=O)CC1,
,,26%,> 99%,CO[C@@H]1CCN(c2nccc(Nc3cc4n(C5CCC6(CC5)OCCO6)c(C(=O)NCC5CN(C)C5)cn4n3)n2)C[C@@H]1F,
,,64%,98%,CCNC(=O)c1cn2nc(Nc3ccnc(N4CC[C@@H](OC)[C@@H](F)C4)n3)cc2n1C1CCC2(CC1)OCCO2,
,,34%,86%,CN1CCC2(CCC(n3c(C(F)(F)F)cn4nc(Nc5ccnc(N6CC[C@@H](O)[C@@H](F)C6)n5)cc34)CC2)C1=O (stereo partly drawn),IC50 [6]: > 1400 nM; IC50 [7]: 22000 nM
